Marks after values point to notes of the source that are not given here.

One experiment relates to S180. Put plainly: Mice bearing S180, tumor weight and inhibition rate. The class given is in vivo, Kunming mice. The procedure: (§1) Choose mice which are in good health conditions and received S180 tumor injection 8 days ago, disinfect abdominal skin, draw ascites, mix with normal saline as ratio of 1:4 (ascites volume:normal saline volume) to make suspension. […] In all groups, subcutaneously inject 0.2 ml of the aforementioned suspension at the right anterior lobe. 2 hours after injection, mice in control group and drug groups receive test substance or suspension via intragastric administration once a day for 14 consecutive days. In positive control group, CTX is administered intraperitoneally once every other day for a total of 7 times.
as §1, with “intragastric or intravenous” for “intragastric”

For a further experiment, the system named is transplanted tumor S 180. The following applies: control group (positive control cyclophosphamide 85 mg/kg daily). The procedure: Take Kunming mice, subcutaneously inject 0.2 ml of S180 suspension (about 1×10^6 tumor cells) in a routine way at the right anterior lobe. 24 hours after injection, mice are randomly grouped and numbered. There are 10 mice in the control groups, and 10 mice each in test groups of high dose, middle dose, and low dose. Mice in each group receive drugs via intragastric administration once a day for a total of 14 times. In positive control group, cyclophosphamide (85 mg/kg) is given daily, and the dose, frequency, time are identical with the test groups.

Another experiment has as its system pulmonary fibrosis. Put plainly: Bleomycin-induced pulmonary fibrosis in rats. The class given is in vivo, SD rats. The following applies: lung, 30 days. The procedure:
Take 60 SD rats (200-240 g, male), randomly divide into sham operation control group (0.5% mucilage tragacanth), model control group (0.5% mucilage tragacanth), positive control group (dexamethasone, 1 mg/kg), Paliurus ramosissimus (Lour) Poir. extract (prepared according to Embodiment 1) low-dose group (0.4 g/kg), Paliurus ramosissimus (Lour) Poir. extract middle-dose group (0.8 g/kg), and Paliurus ramosissimus (Lour) Poir. extract high-dose group (1.6 g/kg) with stratification of body weight. All animals receive trachea separation under anesthesia by intraperitoneal injection of 10% chloral hydrate (350 mg/kg). Except the sham operation control group, rats in other groups receive injection of 5 mg/kg of bleomycin in 0.4 ml of normal saline solution, while rats in sham operation control group receive normal saline solution only. From the next day after surgery, test substance is given daily for 30 consecutive days. Sacrifice the animals by cervical dislocation, and take the lungs; some organs are homogenized for hydroxyproline content determination, and some are for pathological examination.
Take 60 SD rats (200-240 g, male), randomly divide into sham operation control group, model control group, positive control group (dexamethasone, 1 mg/kg), Paliurus ramosissimus (Lour) Poir. extract group (prepared according to Embodiment 1, 0.8 g/kg. op), Ligustrazine (40 mg/kg, ip)and drug combination group (Paliurus ramosissimus (Lour) Poir. Extract 0.8 g/kg, op; Ligustrazine injection40 mg/kg, ip) with stratification of body weight. All animals receive trachea separation under anesthesia by intraperitoneal injection of 10% chloral hydrate (350 mg/kg). Except the sham operation control group, rats in other groups receive injection of 5 mg/kg of bleomycin in 0.4 ml of normal saline solution, while rats in sham operation control group receive normal saline solution only. The next day after the surgery, give the test substance via intragastric administration or injection administration, test substance is given daily for 30 consecutive days. […]

The next experiment has as its system TNBS induced colitis. Kind of experiment: TNBS induced experimental colitis in rats. The class given is in vivo. The following applies: 2 mg/kg. The procedure:
After the animals are fasted for 24 h, perform anesthesia with sodium pentobarbital. Except the sham operation group, perform coloclysis with TNBS and 40% ethanol, and replicate experimental colitis model; 6 h after model construction, administer test substance. At the day 5 of administration, draw tail vein blood and count leukocyte. At day 6, perform urethane anesthesia, draw abdominal aortic blood and sacrifice the animals by cervical dislocation. Cut 9 cm colon from the anus, in an ice bath, cut intestine along the mesenteric edge, wash out the contents, measure the ulcer area, calculate the percentage of ulcer area; weigh the colon, scrap colonic mucosa, and determine tumor necrosis factor (TNF-α) concentration with ELISA method.

Experiment [1] relates to experimental hepatic fibrosis. Put plainly: Carbon tetrachloride-induced liver fibrosis in rats. The class given is in vivo, SD rats. The following applies: 3 months. The procedure: Take 60 SD rats (200-240 g, male), randomly divide into blank control group (0.5% mucilage tragacanth), model control group (0.5% mucilage tragacanth), positive control group (dexamethasone, 1 mg/kg), Paliurus ramosissimus (Lour) Poir. extract (prepared according to Embodiment 1) low-dose group (0.4 g/kg), Paliurus ramosissimus (Lour) Poir. extract middle-dose group (0.8 g/kg), and Paliurus ramosissimus (Lour) Poir. extract high-dose group (1.6 g/kg) with stratification of body weight. Except the blank control group, rats in other groups receive subcutaneous injection of 1 ml/kg of 40% carbon tetrachloride in vegetable oil solution, 2 times a week for 3 consecutive months, while receiving high-fat diet and 5% ethanol aqueous solution. Test substance is given via intragastric administration once daily for 3 consecutive months. On the next day after drug administration, draw abdominal aortic blood, separate plasma, determine the levels of alanine aminotransferase (ALT), III procollagen (PC-III), hyaluronic acid (HA) and laminin (LH); the sacrifice the animals, and take the liver for pathological examination.
Take 60 SD rats (200-240 g, male), randomly divide into blank control group, model control group, positive control group (dexamethasone, 1 mg/kg), Paliurus ramosissimus (Lour) Poir. extract group (prepared according to Embodiment 1, 0.8 g/kg), Polyene phosphatidylcholine group, drug combination group (Paliurus ramosissimus (Lour.) Poir. Extract0.8 g/kg+Polyene phosphatidylcholine1 ml/kg) with stratification of body weight. Except the blank control group, rats in other groups receive subcutaneous injection of 1 ml/kg of 40% carbon tetrachloride in vegetable oil solution, 2 times a week for 3 consecutive months, while receiving high-fat diet and 5% ethanol aqueous solution. Test substance is given via intragastric administration once daily for 3 consecutive months. On the next day after drug administration, draw abdominal aortic blood, separate plasma, determine the levels of alanine aminotransferase (ALT), III procollagen (PC-III), hyaluronic acid (HA) and laminin (LH); the sacrifice the animals, and take the liver for pathological examination.

For another experiment, the system named is peritoneal macrophages. Put plainly: Peritoneal macrophage phagocytosis of normal mice. The class given is in vivo, KM mice. The following applies: inhibition effect positive control 0.1 g/kg, one subcutaneous injection at day 13.
A further experiment has as its system Ehrlich ascites tumor. Put plainly: Mice bearing Ehrlich ascites tumor, survival time and ascites weight. In kind it is in vivo, Kunming mice. Conditions: 40 mg/kg intraperitoneally every other day, 7 times. The procedure:
Choose mice which are in good health conditions and received Ehrlich ascites tumor injection 8 days ago, disinfect abdominal skin, draw ascites, mix with normal saline to […] for future use. […] In all groups, subcutaneously inject 0.2 ml of the aforementioned suspension at the right anterior lobe. 2 hours after injection, mice in control group and drug groups receive test substance or suspension via intragastric administration once a day, administer continuously until the animal is dying. In positive control group, CTX is administered intraperitoneally once every other day for a total of 7 times. When the animal is dying, sacrifice it by cervical dislocation; the day of dying is calculated as survival time; after death, weigh, exhaust ascites, weigh again, and the difference is the weight of ascites.

For experiment [2], the system named is pylorus ligation induced gastric ulcer. Kind of experiment: Pylorus ligation induced experimental gastric ulcer in rats. The class given is in vivo. The following applies: 60 mg/kg intragastric, 3 days.
Text: (§2) In all groups, mice receive test substance via intragastric administration once a day for 3 consecutive days.
as §2

[3] abbreviates: Table 8, 1 ml/kg once a day, 14 days.
Where [4] appears, read: Table 8, 5 mg/kg once a day, 14 days.
[5] abbreviates: Table 11, dexamethasone 1 mg/kg.
Where [6] appears, read: Table 6, 40 mg/kg intraperitoneally every other day, 7 times.
Setting [7] is: Table 8, 40 mg/kg intraperitoneally every other day, 7 times.
Where [8] appears, read: Table 11, polyene phosphatidylcholine group (1 ml/kg in the combination).

Protocol for peritoneal macrophages: Except that the mice in inhibition effect positive control group receive one dose of subcutaneous injection at day 13, mice in other groups receive test substance or suspension via intragastric administration once a day for 14 consecutive days. At day 13 and 14, apply intraperitoneal injection of 6% starch solution respectively. 1 h after the last administration at day 14, apply intraperitoneal injection of 1 ml of 5% chicken erythrocytes in saline suspension; 30 min later, sacrifice the mice by cervical dislocation, apply intraperitoneal injection of 2 ml saline, and gently massage the abdomen. 1 min later, cut open abdomen, draw 1 ml of peritoneal washings, evenly drop on two slides, place in a wet box, and incubate at 37° C. for 30 min. Rinse in saline, dry, fix with 1:1 acetone-methanol solution, stain with 4% (v/v) Giemsa-PBS for 3 min, rinse with distilled water and dry, perform microscopic examination, and calculate the percentage of phagocytosis.

Turning to `CC(=O)O[C@H]1[C@H]2O[C@]23[C@@H]2CC[C@]4(O)C[C@@H](O)CC[C@]4(C)[C@H]2CC[C@]3(C)[C@H]1c1ccc(=O)oc1` [Cinobufotalin, cinobufotalin], in the experiment with S180 (setting [3]), the “Tumor inhibition rate (%)” value came to 43.8% and the “Tumor weight” value came to 0.73 ± 0.42 g.
`O=P1(N(CCCl)CCCl)NCCCO1` (stereo not shown) [Control group, cyclophosphamide] had a Tumor inhibition rate with transplanted tumor S 180 of 38.45 ± 3.62%.
Turning to `Cc1nc(C)c(C)nc1C` [Ligustrazine], the “Hydroxyproline content (mg/gpro)” value in the experiment on pulmonary fibrosis (Table 12, 40 mg/kg ip daily) stood at 14.6 ± 5.7 mg/gpro.
In the case of `CC(=O)O[C@H]1C(=O)[C@@]2(C)[C@H]([C@H](OC(=O)c3ccccc3)[C@]3(O)C[C@H](OC(=O)[C@H](O)[C@@H](NC(=O)c4ccccc4)c4ccccc4)C(C)=C1C3(C)C)[C@]1(OC(C)=O)CO[C@@H]1C[C@@H]2O` [Paclitaxel, paclitaxel], in the experiment on S180 (setting [4]), the “Tumor inhibition rate (%)” value turned out to be 34.6% and the “Tumor weight” value is 0.85 ± 0.38 g.
Take `C[C@@H]1C[C@H]2[C@@H]3CCC4=CC(=O)C=C[C@]4(C)[C@@]3(F)[C@@H](O)C[C@]2(C)[C@@]1(O)C(=O)CO` [Positive Control, dexamethasone]: in the experiment with TNBS induced colitis (colon, day 6), the “Ratio of ulcer area (%)” value came out at 28.6 ± 10.5 %. In addition, the “TNF-α (ng/gpro)” value with TNBS induced colitis (colonic mucosa, ELISA) is listed as 73.2 ± 19.6 ng/gpro. Further, the “Leukocyte count (10^9/L)” value in the experiment with TNBS induced colitis (tail vein blood, day 5) is listed as 8.4 ± 0.9** 10^9/L. Moreover, the “Hydroxyproline content (mg/gpro)” value in the experiment on pulmonary fibrosis (Table 10, dexamethasone 1 mg/kg daily) was 13.6 ± 3.3 mg/gpro. Also, the “Hydroxyproline content (mg/gpro)” value with pulmonary fibrosis (Table 12, dexamethasone 1 mg/kg daily) came out at 13.4 ± 3.7 mg/gpro. In experiment [1] (Table 9, dexamethasone 1 mg/kg), the “ALT (U/L)” value was found to be 456 ± 98 U/L, the “HA” value came out at 280 ± 54 µg/L, the “LN” value came to 62 ± 20 µg/L and the “PC-III” value came to 20.8 ± 3.1 µg/L. In experiment [1] (setting [5]), the “ALT (U/L)” value stood at 478 ± 90 U/L, the “HA” value is 285 ± 57 µg/L, the “LN” value is 65 ± 23 µg/L and the “PC-III” value came out at 20.6 ± 3.8 µg/L.
In the experiment with peritoneal macrophages, `O=P1(N(CCCl)CCCl)NCCCO1` (stereo not shown) [ctx, cyclophosphamide] gave a Percentage of phagocytosis of 0.12 ± 0.03. Also, in the experiment with S180 (setting [6]), the “Tumor inhibition rate (%)” value is listed as 70.8% and the “Tumor weight” value was 0.35 ± 0.58 g. In the experiment on S180 (setting [7]), the “Tumor inhibition rate (%)” value was 63.1% and the “Tumor weight” value came out at 0.48 ± 0.41 g. Moreover, in the experiment with Ehrlich ascites tumor, the “Survival time” value stood at 17.2 ± 2.3 days and the Weight of ascites worked out at 15.9 ± 1.5.
`CNC(=C[N+](=O)[O-])NCCSCc1ccc(CN(C)C)o1` [ranitidine]: the Ulcer index in experiment [2] (Table 19) was 1.5 ± 0.4; in experiment [2] (Table 22), 1.8 ± 0.6. The “Inhibition rate (%)” value in experiment [2] (Table 19, ulcer) came to 68.1%. For the same compound, the “Ulcer inhibition rate (%)” value in experiment [2] (Table 22) was determined as 60.0%.
In the case of Polyene phosphatidylcholine, in experiment [1] (setting [8]), the “ALT (U/L)” value was 443 ± 130 U/L, the “HA” value turned out to be 284 ± 78 µg/L, the “LN” value amounted to 63 ± 18 µg/L and the “PC-III” value amounted to 27.0 ± 4.8 µg/L.

(Values after patent US20160256510A1, “PALIURUS RAMOSISSIMUS (LOUR.) POIR EXTRACT AND PREPARATION METHOD AND USES THEREOF” (priority 2013, published 2016).)
